Assay results: article PMC5531531, “A synthetic cationic antimicrobial peptide inhibits inflammatory response and the NLRP3 inflammasome by neutralizing LPS and ATP” (PLoS ONE, 2017)
No end group written: not given here.

What was measured:
[1] = system: iNOS and COX-2 in E. coli-LPS-activated RAW 264.7 macrophages; test: iNOS and COX-2 expression (Western blot, quantitative real-time PCR); format: cell-based, mouse
Method: (§1) The protein expression levels of iNOS, COX-2, ERK1/2, JNK1/2, p38, IκB-α, PKC, caspase-1 and the phosphorylation levels of ERK1/2, JNK1/2, p38, PKC-α, PKC-δ, IκB-α were determined by Western blotting as described in detail previously.
RAW 264.7 (2 × 10^6 in 2 ml of medium) were seeded in 6-cm dishes and then treated with or without LPS (0.1 μg/ml) in the absence or presence of AMP for 6 h. Total RNA was extracted from the treated cells by TRIzol reagent (Gibco, Grand Island, NY, USA) and the cDNA was prepared as described in detail previously. The mRNA expression levels of iNOS and COX-2 were measured by quantitative real-time PCR using the StepOne real-time PCR system (Applied Biosystems, Foster City, CA, USA). The primers used were: for mouse iNOS, forward 5- […]-3 and reverse 5-TGAACGAGGAGGGTGGTG-3; for mouse COX-2, forward 5-[…]-3 and reverse 5-[…]-3. The gene expression data are presented as the relative expression (LPS group as 100%) normalized to that of glyceraldehyde-3-phosphate dehydrogenase (GAPDH).

[2] = system: E. coli-LPS-activated RAW 264.7 macrophages; test: TNF-α and IL-6 secretion ELISA, RAW 264.7; format: cell-based, mouse; details: RAW 264.7, E. coli LPS 0.1 μg/ml 24 h, Fig 1E
Method: (§2) The expression levels of IL-1β, IL-6 and TNF-α in the conditional medium, sera and lavage fluids were measured by ELISA as described in detail previously.
Fig 1 Effects of GW-A2 on the expression levels of inflammatory mediators. (A) RAW 264.7 macrophages were incubated for 30 min with or without GW-A2 or scrambled GW-A2, followed by incubation with or without 0.1 μg/ml of E. coli LPS or Salmonella LPS for 24 h. The levels of NO in the culture medium were measured by the Griess reaction. (B) RAW 264.7 macrophages were incubated for 30 min with or without GW-A2, followed by incubation with or without peptidoglycan (20 μg/ml), Pam3CSK4 (0.2 μg/ml) or capsular polysaccharide (3 μg/ml) for 24 h. The levels of NO in the culture medium were measured by the Griess reaction. […] The levels of iNOS and COX-2 were assessed by Western blotting and the histograms represent the expression levels compared to the LPS alone group obtained in three different experiments. […] The mRNA levels of iNOS and COX-2 were assessed by quantitative real-time PCR. […] The cell proliferation was measured by AlamarBlue® assay. The data are expressed as the mean ± SD of three independent experiments. *, ** and *** indicate significant differences, representing p < 0.05, p < 0.01 and p < 0.001, respectively compared to stimulation alone. # indicates significant differences, representing p < 0.05 compared to 2 μM of GW-A2 group.

[3] = system: THP-1 macrophages; format: cell-based, human
Method: RAW 264.7 cells or THP-1 macrophages (5 × 10^3 in 0.1 ml of medium) were seeded in 96-well plates and then incubated with various doses of AMP for 24 h. An AlamarBlue® assay (AbD Serotec, Oxford, UK) was used to determine the cytotoxicity of the test AMP. The procedure was conducted following the protocol described in the manufacturer’s instructions.

[4] = system: NF-κB activity in RAW-Blue cells; test: NF-κB reporter assay; format: cell-based; details: E. coli LPS 0.1 μg/ml 24 h, QUANTI-Blue, Fig 2D
Method: RAW-Blue™ cells (2 × 10^5 in 0.5 ml of medium) were seeded in 24-well plates and then incubated with LPS (0.1 μg/ml) in the presence or absence of AMPs for 24 h. The NF-κB activity was assayed by QUANTI-Blue™ (rep-qb1, InvivoGen) as described in detail previously.

[5] = system: C57BL/6 mice injected with E. coli LPS; format: in vivo, mouse
Method: as §2, §1
Experiments were performed on 8-week-old male C57BL/6 mice purchased from the National Laboratory Animal Center (Taipei, Taiwan). The mice were randomized into the following four groups: Group I: control, intraperitoneal injection of 100 μl of sterile PBS, n = 3; Group II: LPS, intraperitoneal injection of 100 μl of sterile PBS containing E. coli LPS (10 mg/kg), n = 5; Group III: GW-A2+LPS, intraperitoneal injection of 100 μl of sterile PBS containing E. coli LPS (10 mg/kg) and GW-A2 (10 mg/kg), n = 5. Group IV: AMP, intraperitoneal injection of 100 μl of sterile PBS containing GW-A2 (10 mg/kg), n = 3. Sera were collected for analysis at 4 h after LPS injection. Peritoneal lavages, lungs and livers were collected for analysis at 24 h after LPS injection.
Lungs, livers and kidney were fixed in 10% formalin and paraffin-embedded, then 4 um thick sections were cut and stained with hematoxylin and eosin was described in detail previously. Scoring of the polymorphonuclear neutrophils (PMN) infiltration was determined by counting in 5 randomly sampled fields by light microscopy at a magnification of x400 evaluated by a pathologist in National Defense Medical Center (Taipei, Taiwan).

[6] = Western blot, E. coli LPS 0.1 μg/ml 24 h, Fig 1C
[7] = quantitative real-time PCR, E. coli LPS 0.1 μg/ml 6 h, Fig 1D
[8] = i.p. E. coli LPS 10 mg/kg with GW-A2 10 mg/kg, n = 5, sera 4 h after LPS, ELISA, Fig 5A

Sequence: GAKYAKIIYNYLKKIANALW [GW-A2]
- COX-2 protein expression level [1, 6]: inhibited
- iNOS protein expression level [1, 6]: inhibited
- Inhibitory activity on COX-2 protein expression, 4 μM compared to 2 μM ([1]; Western blot, 4 μM of GW-A2 compared to 2 μM): lower inhibitory activity
- COX-2 mRNA expression level [1, 7]: inhibited
- iNOS mRNA expression level [1, 7]: inhibited
- IL-6 secretion level [2]: reduced
- TNF-α secretion level [2]: reduced
- Viability of THP-1 macrophages [3]: did not reduce
- NF-κB transcriptional activity [4]: reduced by GW-A2 in a dose-dependent manner
- IL-1β level in the sera [5, 8]: significantly reduced
- IL-6 level in the sera [5, 8]: significantly reduced
- TNF-α level in the sera [5, 8]: significantly reduced
- Infiltration of PMN into the lung and liver ([5]; i.p. LPS 10 mg/kg with GW-A2 10 mg/kg, 24 h, H&E, 5 fields x400, Fig 5D, 5E): reduced
- Expression levels of iNOS, COX-2 and NLRP3 in the lung and liver ([5]; i.p. LPS 10 mg/kg with GW-A2 10 mg/kg, tissues 24 h after LPS, Western blot, Fig 5C): reduced
- Adverse effects in GW-A2-injected mice ([5]; mouse, in vivo, ip, 10 mg/kg): no adverse effects were observed
- Behaviors of GW-A2-injected mice versus control mice ([5]; mouse, in vivo, ip, 10 mg/kg): not significantly different
